Source: ChEMBL document CHEMBL3991601, “The target landscape of clinical kinase drugs” (Science, 2017)
The source made the active and inactive calls. Rule as the data show it, for most assays here: actives have a measured Kd and inactives only a lower limit.

Key:
[1] = biological target: Dual specificity tyrosine-phosphorylation-regulated kinase 1A (Homo sapiens, UniProt Q13627)
TGF-beta receptor type-2 = TGF-beta receptor type-2 (Homo sapiens, UniProt P37173)
[2] = biological target: Receptor-interacting serine/threonine-protein kinase 2 (Homo sapiens, UniProt O43353)
Sequence of Receptor-interacting serine/threonine-protein kinase 2 (O43353 whole entry): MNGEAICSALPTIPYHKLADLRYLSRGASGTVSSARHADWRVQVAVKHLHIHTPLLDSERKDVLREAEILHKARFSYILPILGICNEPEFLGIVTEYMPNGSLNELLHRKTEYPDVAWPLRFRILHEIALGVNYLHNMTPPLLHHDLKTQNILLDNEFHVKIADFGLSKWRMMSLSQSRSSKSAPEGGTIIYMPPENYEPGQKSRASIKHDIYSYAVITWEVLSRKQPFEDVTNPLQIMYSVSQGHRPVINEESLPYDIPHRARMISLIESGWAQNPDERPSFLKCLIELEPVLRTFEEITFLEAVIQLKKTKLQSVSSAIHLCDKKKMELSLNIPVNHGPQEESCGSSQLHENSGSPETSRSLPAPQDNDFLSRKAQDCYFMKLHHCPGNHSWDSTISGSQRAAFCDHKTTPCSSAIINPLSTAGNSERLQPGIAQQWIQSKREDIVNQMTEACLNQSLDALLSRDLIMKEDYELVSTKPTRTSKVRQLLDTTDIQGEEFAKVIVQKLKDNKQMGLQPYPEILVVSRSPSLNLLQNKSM

[3] = biological target: T1, Mitogen-activated protein kinase kinase kinase 2 (Homo sapiens, UniProt Q9Y2U5)
T1 sequence (Q9Y2U5 whole entry): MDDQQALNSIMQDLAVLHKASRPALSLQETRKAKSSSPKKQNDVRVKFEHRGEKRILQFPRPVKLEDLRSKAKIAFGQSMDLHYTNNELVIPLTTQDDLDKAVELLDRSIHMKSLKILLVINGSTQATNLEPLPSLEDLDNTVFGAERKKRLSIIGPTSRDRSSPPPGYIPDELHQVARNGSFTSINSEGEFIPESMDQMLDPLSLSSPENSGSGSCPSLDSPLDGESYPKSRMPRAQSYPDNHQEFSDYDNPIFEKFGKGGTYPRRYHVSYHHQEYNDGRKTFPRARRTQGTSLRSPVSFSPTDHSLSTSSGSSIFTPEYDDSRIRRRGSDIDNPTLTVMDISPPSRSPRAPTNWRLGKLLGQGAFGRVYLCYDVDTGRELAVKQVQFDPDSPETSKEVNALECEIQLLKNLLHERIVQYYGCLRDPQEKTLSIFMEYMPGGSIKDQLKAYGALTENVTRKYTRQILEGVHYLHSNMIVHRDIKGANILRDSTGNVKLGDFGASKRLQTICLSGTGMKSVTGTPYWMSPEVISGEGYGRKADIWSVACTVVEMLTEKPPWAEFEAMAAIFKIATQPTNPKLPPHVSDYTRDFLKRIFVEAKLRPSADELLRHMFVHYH

[4] = biological target: Mitogen-activated protein kinase kinase kinase kinase 4 (Homo sapiens, UniProt O95819)
Sequence of Mitogen-activated protein kinase kinase kinase kinase 4 (O95819 whole entry): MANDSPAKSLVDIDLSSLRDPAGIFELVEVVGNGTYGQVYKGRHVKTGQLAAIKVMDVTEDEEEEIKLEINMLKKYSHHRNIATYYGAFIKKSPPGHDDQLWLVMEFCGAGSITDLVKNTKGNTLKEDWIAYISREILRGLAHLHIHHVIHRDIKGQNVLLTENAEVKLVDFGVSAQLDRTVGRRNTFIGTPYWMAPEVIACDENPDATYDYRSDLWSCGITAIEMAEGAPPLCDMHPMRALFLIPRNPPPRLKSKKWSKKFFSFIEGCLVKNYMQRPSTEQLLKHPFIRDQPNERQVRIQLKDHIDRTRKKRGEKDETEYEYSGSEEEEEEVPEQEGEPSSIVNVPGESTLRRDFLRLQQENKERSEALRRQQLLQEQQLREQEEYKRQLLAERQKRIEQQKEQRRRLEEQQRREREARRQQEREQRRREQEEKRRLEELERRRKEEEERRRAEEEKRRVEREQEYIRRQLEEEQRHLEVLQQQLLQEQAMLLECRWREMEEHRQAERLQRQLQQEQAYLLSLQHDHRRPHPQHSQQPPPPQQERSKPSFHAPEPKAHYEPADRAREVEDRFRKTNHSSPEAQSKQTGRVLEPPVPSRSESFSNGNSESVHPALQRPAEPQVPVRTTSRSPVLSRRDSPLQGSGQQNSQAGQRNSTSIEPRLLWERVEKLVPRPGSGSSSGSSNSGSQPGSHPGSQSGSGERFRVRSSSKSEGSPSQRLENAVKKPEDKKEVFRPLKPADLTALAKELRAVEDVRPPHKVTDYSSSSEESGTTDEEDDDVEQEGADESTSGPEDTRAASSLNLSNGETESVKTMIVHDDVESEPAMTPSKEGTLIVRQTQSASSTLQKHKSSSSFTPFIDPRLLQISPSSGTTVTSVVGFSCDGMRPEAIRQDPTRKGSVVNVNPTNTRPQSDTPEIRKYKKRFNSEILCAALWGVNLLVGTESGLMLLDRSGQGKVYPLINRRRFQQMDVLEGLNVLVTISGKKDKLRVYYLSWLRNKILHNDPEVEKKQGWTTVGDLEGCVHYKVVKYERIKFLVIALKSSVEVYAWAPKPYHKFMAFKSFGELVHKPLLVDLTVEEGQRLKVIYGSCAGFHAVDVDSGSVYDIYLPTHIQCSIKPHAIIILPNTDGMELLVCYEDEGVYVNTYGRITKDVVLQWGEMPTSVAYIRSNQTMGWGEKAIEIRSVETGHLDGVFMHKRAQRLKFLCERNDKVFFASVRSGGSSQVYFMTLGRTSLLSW

[5] = biological target: T2, Dual specificity mitogen-activated protein kinase kinase 5 (Homo sapiens, UniProt Q13163)
T2 sequence (Q13163 whole entry): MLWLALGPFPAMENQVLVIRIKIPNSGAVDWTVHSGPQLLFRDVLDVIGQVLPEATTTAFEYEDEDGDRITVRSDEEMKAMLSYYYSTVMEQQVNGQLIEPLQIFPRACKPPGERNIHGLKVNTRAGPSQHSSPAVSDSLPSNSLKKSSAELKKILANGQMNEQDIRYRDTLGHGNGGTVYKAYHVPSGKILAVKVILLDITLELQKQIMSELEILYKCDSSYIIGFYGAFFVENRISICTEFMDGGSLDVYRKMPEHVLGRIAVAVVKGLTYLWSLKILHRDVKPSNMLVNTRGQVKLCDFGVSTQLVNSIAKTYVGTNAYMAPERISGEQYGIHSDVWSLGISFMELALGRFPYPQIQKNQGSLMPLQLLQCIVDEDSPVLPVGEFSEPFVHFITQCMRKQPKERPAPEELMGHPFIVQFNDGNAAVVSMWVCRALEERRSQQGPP

[6] = biological target: T3, Serine/threonine-protein kinase 4 (Homo sapiens, UniProt Q13043)
T3 sequence (Q13043 whole entry): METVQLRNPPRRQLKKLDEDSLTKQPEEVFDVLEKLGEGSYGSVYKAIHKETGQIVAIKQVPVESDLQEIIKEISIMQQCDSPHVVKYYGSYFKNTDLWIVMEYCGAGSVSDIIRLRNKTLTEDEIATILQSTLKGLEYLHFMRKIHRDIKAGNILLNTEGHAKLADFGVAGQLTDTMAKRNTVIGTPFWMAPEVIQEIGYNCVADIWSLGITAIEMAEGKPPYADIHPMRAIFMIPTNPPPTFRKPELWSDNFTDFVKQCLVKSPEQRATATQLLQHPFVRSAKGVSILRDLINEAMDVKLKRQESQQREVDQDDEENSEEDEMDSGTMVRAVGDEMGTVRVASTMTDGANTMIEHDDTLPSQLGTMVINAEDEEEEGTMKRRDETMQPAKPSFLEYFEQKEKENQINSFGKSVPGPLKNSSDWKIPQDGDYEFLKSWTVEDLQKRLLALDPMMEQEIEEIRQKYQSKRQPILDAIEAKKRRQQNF

[7] = biological target: Mitogen-activated protein kinase 8 (Homo sapiens, UniProt P45983)
Sequence of Mitogen-activated protein kinase 8 (P45983 whole entry): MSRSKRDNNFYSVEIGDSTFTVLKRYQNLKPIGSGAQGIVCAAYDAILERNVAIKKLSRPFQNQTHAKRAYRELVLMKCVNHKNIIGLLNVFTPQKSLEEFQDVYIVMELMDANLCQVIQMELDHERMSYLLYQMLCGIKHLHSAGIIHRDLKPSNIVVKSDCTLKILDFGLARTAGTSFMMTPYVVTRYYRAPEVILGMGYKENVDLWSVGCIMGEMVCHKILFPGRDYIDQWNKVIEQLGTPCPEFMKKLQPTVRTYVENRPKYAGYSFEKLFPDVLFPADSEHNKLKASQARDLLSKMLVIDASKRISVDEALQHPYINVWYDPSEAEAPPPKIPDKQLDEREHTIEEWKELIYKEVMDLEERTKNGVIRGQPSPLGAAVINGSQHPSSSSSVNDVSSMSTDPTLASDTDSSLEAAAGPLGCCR

[8] = biological target: AP2-associated protein kinase 1 (Homo sapiens, UniProt Q2M2I8)
Sequence of AP2-associated protein kinase 1 (Q2M2I8 whole entry): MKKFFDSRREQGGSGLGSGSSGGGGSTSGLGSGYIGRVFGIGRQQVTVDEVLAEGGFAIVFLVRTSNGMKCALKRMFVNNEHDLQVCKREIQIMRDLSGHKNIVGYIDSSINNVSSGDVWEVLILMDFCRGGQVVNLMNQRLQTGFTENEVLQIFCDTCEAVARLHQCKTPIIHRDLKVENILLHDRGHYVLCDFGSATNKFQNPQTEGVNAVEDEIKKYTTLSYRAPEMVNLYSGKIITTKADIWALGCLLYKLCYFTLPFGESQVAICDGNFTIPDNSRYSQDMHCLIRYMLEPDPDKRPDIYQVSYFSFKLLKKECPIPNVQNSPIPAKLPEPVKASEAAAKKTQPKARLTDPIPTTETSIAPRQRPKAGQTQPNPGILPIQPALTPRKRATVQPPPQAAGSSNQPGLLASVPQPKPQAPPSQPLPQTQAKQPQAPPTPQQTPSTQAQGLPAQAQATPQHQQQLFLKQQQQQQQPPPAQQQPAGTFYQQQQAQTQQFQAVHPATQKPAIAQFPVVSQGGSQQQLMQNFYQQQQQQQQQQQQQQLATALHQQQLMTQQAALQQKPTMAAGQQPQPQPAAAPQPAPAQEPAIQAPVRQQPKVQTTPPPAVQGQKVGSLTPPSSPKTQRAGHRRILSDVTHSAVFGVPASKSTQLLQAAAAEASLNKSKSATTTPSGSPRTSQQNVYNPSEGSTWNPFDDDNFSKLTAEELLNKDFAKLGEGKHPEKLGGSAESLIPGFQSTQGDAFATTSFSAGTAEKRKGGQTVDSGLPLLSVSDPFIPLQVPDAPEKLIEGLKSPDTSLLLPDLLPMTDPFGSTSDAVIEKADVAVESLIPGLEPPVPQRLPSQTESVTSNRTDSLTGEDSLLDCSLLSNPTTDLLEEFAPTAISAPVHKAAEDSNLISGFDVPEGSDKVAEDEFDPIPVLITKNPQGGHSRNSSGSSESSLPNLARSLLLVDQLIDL

Wee1-like protein kinase = Wee1-like protein kinase (Homo sapiens, UniProt P30291)
Sequence of Wee1-like protein kinase (P30291 whole entry): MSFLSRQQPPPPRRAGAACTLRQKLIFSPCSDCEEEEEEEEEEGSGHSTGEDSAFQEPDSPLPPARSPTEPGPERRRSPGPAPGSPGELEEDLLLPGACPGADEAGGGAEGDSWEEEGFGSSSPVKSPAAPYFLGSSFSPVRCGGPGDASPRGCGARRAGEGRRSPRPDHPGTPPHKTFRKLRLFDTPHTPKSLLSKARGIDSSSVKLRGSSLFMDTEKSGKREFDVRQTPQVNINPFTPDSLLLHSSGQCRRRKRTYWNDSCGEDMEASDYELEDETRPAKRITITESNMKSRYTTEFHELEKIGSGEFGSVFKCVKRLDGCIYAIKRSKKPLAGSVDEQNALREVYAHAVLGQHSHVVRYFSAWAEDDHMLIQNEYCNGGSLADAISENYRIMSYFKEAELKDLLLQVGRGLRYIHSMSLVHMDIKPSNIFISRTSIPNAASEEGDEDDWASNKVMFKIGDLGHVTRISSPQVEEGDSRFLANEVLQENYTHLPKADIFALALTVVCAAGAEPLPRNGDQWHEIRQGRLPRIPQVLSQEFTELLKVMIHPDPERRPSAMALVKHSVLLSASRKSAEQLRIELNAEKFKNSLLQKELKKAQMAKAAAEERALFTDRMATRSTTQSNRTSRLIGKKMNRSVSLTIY

[9] = biological target: T4, Peroxisomal acyl-coenzyme A oxidase 1 (Homo sapiens, UniProt Q15067)
T4 sequence (Q15067 whole entry): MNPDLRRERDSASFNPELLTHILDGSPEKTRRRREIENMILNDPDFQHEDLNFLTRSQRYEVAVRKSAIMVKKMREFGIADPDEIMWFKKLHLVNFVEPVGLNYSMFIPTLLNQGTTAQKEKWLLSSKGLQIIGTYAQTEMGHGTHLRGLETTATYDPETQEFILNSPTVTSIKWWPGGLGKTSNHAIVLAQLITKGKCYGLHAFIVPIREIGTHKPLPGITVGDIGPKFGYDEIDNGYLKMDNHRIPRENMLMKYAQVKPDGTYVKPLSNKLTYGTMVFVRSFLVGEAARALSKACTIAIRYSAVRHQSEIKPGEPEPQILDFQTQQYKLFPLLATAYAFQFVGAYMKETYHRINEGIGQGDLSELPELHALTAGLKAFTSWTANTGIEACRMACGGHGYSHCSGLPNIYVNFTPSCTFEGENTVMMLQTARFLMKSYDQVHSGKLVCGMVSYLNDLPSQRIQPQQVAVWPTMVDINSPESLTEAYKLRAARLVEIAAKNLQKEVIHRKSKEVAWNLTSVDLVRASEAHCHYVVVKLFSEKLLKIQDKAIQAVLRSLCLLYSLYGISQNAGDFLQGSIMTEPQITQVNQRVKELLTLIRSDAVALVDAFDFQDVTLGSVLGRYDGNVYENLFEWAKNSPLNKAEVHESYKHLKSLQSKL

[10] = biological target: Tyrosine-protein kinase FRK (Homo sapiens, UniProt P42685)
Sequence of Tyrosine-protein kinase FRK (P42685 whole entry): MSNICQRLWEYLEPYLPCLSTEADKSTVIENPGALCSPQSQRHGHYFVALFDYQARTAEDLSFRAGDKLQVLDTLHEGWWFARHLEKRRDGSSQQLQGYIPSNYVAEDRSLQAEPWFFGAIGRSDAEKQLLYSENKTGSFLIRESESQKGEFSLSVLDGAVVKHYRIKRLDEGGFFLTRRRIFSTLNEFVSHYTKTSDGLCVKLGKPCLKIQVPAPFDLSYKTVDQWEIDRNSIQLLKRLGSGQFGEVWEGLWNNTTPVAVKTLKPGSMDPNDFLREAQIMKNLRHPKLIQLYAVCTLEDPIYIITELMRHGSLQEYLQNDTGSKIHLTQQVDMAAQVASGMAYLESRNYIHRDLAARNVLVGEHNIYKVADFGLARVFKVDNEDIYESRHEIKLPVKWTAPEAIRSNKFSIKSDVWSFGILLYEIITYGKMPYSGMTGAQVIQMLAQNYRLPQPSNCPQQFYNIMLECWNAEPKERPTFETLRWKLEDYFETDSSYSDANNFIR
Also: in the data inactive means no Kd found up to 30 µM.

Sequence of TGF-beta receptor type-2 (P37173 whole entry): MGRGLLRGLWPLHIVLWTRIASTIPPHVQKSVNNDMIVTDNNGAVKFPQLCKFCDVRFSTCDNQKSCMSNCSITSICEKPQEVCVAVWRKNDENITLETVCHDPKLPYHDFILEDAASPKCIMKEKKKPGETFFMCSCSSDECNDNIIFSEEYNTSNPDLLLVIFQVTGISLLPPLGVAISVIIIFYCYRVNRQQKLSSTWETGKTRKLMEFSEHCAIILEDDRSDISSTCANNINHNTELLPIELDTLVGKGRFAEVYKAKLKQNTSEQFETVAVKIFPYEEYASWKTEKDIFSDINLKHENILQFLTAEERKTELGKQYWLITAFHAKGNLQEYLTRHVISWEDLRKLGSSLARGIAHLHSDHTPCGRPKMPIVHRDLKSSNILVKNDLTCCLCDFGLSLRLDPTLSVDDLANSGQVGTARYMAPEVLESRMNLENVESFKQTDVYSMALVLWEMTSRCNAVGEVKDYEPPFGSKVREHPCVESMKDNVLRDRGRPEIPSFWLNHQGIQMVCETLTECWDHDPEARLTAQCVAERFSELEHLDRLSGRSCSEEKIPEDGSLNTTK

SMILES	Kd [1]	Kd (TGF-beta receptor type-2)	Kd [2]	Kd [3]	Kd [4]	Kd [5]	Kd [6]	Kd [7]	Kd [8]	Kd (Wee1-like protein kinase)	Kd [9]	Kd [10]
NC(=O)c1ccc(N(C(N)=O)c2c(F)cccc2F)nc1-c1ccc(F)cc1F [VX-702]	> 30 µM (inactive)	> 30 µM (inactive)	> 30 µM (inactive)	> 30 µM (inactive)	> 30 µM (inactive)	> 30 µM (inactive)	> 30 µM (inactive)	> 30 µM (inactive)	> 30 µM (inactive)	> 30 µM (inactive)	> 30 µM (inactive)	> 30 µM (inactive)
COc1cc2ncnc(Nc3ccc(O)cc3)c2cc1OC [WHI-P131]	> 30 µM (inactive)	> 30 µM (inactive)	5.94 µM (active)	> 30 µM (inactive)	> 30 µM (inactive)	> 30 µM (inactive)	> 30 µM (inactive)	> 30 µM (inactive)	1.07 µM (active)	> 30 µM (inactive)	> 30 µM (inactive)	> 30 µM (inactive)
